Results as given in patent US20130202619A1, “METHODS AND MATERIALS FOR REDUCING LIVER FIBROSIS” (MAYO FOUNDATION FOR MEDICAL EDUCATION AND RESEARCH, priority 2010, published 2013).
“And” between values parts separate entries of the source, which are not always exact repeats. Identical values can stand only once. “Also recorded” adds a separate entry of the source.

What was measured:
Format in all cases: cell-based, human
HuH7 cells [1] = experiment: Lumican gene expression in HuH7 cells exposed to free fatty acids (real-time PCR); details: 400 μM fatty acid, 6 hours
Protocol: (§1) The hepatocyte cell line HuH7, the cholangiocyte cell line H69, and the hepatic stellate cell line LX2 were grown to confluence in DMEM with 10% fetal bovine serum and antibiotics Penicillin (100 U/mL) and Streptomycin (10 μg/mL) at 37° C. and 5% CO2 Cells were harvested, washed in cold phosphate buffered saline and snap frozen. […] At 24, 48 and 72 hours, cells were trypsin digested, washed three times with ice cold phosphate buffered saline and quick frozen at −80° C. in two separate lots for either protein or RNA extraction. In separate experiments, palmitic or stearic acid was added to the culture media of HuH7 cells at a concentration of 400 μM (Cazanave et al., J. Biol. Chem., 284:26591-26602 (2009)). All experiments were carried out in triplicate and results are reported as the average of triplicates.
(§2) Total RNA was isolated from cells collected from the cell culture experiments (described herein) or from liver tissue samples collected from patient or from mouse experiments (described herein) using the RNeasy Plus kit as per the manufacturer's instructions (Qiagen, GmbH, Germany). 500 ng of total RNA was reverse transcribed into cDNA using random hexamers (Transcriptor High Fidelity cDNA synthesis kit, Roche, USA). Real time PCR was carried on a LightCycler (Roche, CA, USA) using equal quantities of template cDNA in a total volume of 20 μL using Lightcycler FastStart DNA Master SYBR green1 (Roche, Indianapolis, USA). Expression of 18S rRNA was used as the internal standard (Quantum RNA 18S Internal Standards, Ambion Inc, Austin, Tex., USA). Standard curves were generated for each optimized assay using known PCR copy numbers to produce a linear plot of threshold cycle (Ct) against log dilution. Data for lumican is presented as lumican copy number normalized against the 18S absolute copy number where indicated. For all other gene expression assays, results are presented as fold change as represented by the expression 2^−ΔΔCt (Schmittgen & Livak, Nat. Protoc., 3:1101-1108 (2008)).
Gene expression data presented as copy number are expressed as mean±standard error. […]

HuH7 cells [2] = experiment: Response of HuH7 cells to TGFβ1 (gene expression by real-time PCR, cell fate)
Protocol: as §1, §2
(§3) HuH7 or LX2 cells were plated at uniform density in single well chamber slides adopting the same protocol as for cell culture described above. At time points of 0, 24, 48, and 72 hours post seeding, medium was aspirated, slides were washed with phosphate buffered saline, air dried and stored at −80° C. until staining. Briefly, cells were fixed in acetone, followed by 1% paraformaldehyde. Cells were immunostained with anti human lumican at dilution of 1:50 (Santa Cruz, USA) and detected with appropriate FITC labeled secondary antibodies (MP Biomedicals, OH, USA). Negative controls consisted of identical treatments with omission of primary antibody. DAPI was used for nuclear staining (Sigma, MO, USA). Images were captured on an Olympus microscope with appropriate filter settings for FITC (green) and DAPI (blue).
(§4) Gene expression data presented as copy number are expressed as mean±standard error. Fold changes represent values normalized to 18S and to time point of 0 hours. To assess significance of difference between treatments, the paired 2-tailed student's test with equal variance was used. A p value of <0.05 was considered statistically significant.

LX2 cells = experiment: Response of LX2 cells to TGFβ1 (gene expression by real-time PCR, cell fate)
Protocol: as §1, §2, §3, §4

[3] = HuH7 cells, TGFβ1 2 ng/mL, 48 hours

Compound | increase in lumican expression (HuH7 cells [1]) | increase in collagen 1α1 gene expression (HuH7 cells [2]; HuH7 cells, TGFβ1 2 ng/mL, 24 hours) [fold] | increase in collagen 1α1 gene expression (HuH7 cells [2]; [3]) [fold] | increase in lumican gene expression (HuH7 cells [2]; [3]) | increase in lumican gene expression over baseline (HuH7 cells [2]; HuH7 cells, TGFβ1 2 ng/mL, 72 hours) | cell fate (apoptosis / proliferation) (HuH7 cells [2]; HuH7 cells, TGFβ1 2 ng/mL, over 72 hours) | decrease in albumin production (HuH7 cells [2]; HuH7 cells, TGFβ1, 24 hours) [fold] | increase in alpha smooth muscle actin expression (HuH7 cells [2]; HuH7 cells, TGFβ1, 48 hours) | decrease in albumin production (HuH7 cells [2]; HuH7 cells, TGFβ1, 48 hours (48-72 hours)) | beta 1 integrin expression (HuH7 cells [2]; HuH7 hepatocytes, TGFβ1 2 ng/mL, up to 72 hours) | increase in lumican gene expression over baseline (LX2 cells; LX2 cells, TGFβ1 2 ng/mL, 72 hours) [fold] | cell fate (apoptosis / proliferation) (LX2 cells; LX2 cells, TGFβ1 2 ng/mL, over 72 hours) | increase in alpha smooth muscle actin expression (LX2 cells; LX2 cells, TGFβ1, 48 hours) [fold] | increase in collagen 1α1 gene expression (LX2 cells; LX2 stellate cells, TGFβ1 2 ng/mL, 24 hours) [fold] | increase in collagen 1α1 gene expression (LX2 cells; LX2 stellate cells, TGFβ1 2 ng/mL, 48 hours) [fold] | beta 1 integrin expression (LX2 cells; LX2 stellate cells, TGFβ1 2 ng/mL, up to 72 hours) | increase in lumican expression (HuH7 cells [1]; listed as palmitic)
CCCCCCCCCCCCCCCCCC(=O)O [stearic acid] | 1.9 fold and 2 fold |  |  |  |  |  |  |  |  |  |  |  |  |  |  |  | 
TGFβ1: pro-fibrotic cytokine transforming growth factor β1 (R&D systems), used at 2 ng/mL |  | 9 | > 100 | four fold | 15 fold and 14 fold | underwent apoptosis | 10 | fourfold; also recorded: four fold | five fold; also recorded: four fold | no change | 27 | continued to proliferate | 4.5 | 4 | 5 | gradual increase | 
CCCCCCCCCCCCCCCC(=O)O [palmitic acid] | 3.1 fold |  |  |  |  |  |  |  |  |  |  |  |  |  |  |  | three fold
